From patent US20260028365A1 (BIOGEN MA INC., priority 2022, published 2026)

Legend:
JH2 domain of human Tyk2 = JH2 domain of human Tyk2 (Homo sapiens (Human), UniProt P29597); assay: JH2 Biochemical Assay (TR-FRET probe displacement); assay type: binding; details: JH2 domain of human Tyk2, TR-FRET probe displacement
Tyk2 = Tyk2 (Homo sapiens (Human), UniProt P29597); assay: pSTAT4 Cell Assay (MSD, NK92 cells); assay type: cell-based; details: MSD
Tyk2, sequence (P29597 whole entry): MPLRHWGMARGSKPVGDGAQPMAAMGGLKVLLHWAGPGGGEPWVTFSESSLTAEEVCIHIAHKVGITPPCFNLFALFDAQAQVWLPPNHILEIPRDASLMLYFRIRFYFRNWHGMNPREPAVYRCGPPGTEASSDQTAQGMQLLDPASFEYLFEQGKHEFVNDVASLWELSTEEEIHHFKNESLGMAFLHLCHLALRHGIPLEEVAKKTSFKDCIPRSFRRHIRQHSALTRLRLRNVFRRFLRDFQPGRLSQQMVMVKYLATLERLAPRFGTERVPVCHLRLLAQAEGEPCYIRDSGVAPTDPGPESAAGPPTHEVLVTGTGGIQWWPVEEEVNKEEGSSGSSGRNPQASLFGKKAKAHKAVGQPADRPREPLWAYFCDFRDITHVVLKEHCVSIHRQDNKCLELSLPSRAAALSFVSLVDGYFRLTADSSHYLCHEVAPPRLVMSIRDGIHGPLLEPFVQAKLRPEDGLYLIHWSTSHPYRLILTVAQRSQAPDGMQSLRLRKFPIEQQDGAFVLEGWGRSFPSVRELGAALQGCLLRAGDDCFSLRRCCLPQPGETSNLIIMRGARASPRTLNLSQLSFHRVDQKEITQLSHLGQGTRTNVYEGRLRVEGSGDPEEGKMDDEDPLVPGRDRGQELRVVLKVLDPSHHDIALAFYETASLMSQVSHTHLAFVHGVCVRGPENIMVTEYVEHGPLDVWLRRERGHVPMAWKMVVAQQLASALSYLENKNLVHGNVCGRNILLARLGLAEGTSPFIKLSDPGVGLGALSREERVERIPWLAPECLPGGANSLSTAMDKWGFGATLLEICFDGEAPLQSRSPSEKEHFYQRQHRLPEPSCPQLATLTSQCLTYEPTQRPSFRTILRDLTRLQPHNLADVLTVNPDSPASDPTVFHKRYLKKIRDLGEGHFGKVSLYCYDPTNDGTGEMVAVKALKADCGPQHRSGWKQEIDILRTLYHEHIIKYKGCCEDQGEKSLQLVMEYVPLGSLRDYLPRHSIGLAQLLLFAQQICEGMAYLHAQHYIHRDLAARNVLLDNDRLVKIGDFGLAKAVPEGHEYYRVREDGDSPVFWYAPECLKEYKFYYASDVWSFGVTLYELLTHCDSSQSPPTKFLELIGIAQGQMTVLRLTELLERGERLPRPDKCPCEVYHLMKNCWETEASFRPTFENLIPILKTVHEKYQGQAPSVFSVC

JH2 domain of human Tyk2, sequence (P29597 575-876): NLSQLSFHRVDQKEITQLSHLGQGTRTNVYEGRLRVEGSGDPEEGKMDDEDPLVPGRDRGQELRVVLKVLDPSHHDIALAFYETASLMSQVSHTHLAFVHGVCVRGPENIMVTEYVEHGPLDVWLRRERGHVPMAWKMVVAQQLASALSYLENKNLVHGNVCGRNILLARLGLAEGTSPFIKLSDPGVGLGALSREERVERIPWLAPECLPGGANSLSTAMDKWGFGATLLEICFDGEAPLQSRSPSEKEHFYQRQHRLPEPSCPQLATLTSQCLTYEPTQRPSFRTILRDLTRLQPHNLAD

| SMILES | IC50 (JH2 domain of human Tyk2) | IC50 (Tyk2) |
| --- | --- | --- |
| CC(=O)Nc1cc(Nc2cc(C)nc(C(C)(F)F)n2)c(OC[C@@H]2CCN(C3CC3)C2)cn1 [Example 494, (R)-N-(5-((1-cyclopropylpyrrolidin-3-yl)methoxy)-4-((2-(1,1-difluoroethyl)-6-methylpyrimidin-4-yl)amino)pyridin-2-yl)acetamide] | ≤ 10 nM | 10 to 100 nM |
| CC(=O)Nc1cc(Nc2cc(C)nc(C(C)(F)F)n2)c(OCc2ccon2)cn1 [Example 495, N-(4-((2-(1,1-difluoroethyl)-6-methylpyrimidin-4-yl)amino)-5-(isoxazol-3-ylmethoxy)pyridin-2-yl)acetamide] | ≤ 10 nM | 10 to 100 nM |
| CC(=O)Nc1cc(Nc2cc(C)nc(C(C)(F)F)n2)c(OCc2nccn2C)cn1 [Example 496, N-(4-((2-(1,1-difluoroethyl)-6-methylpyrimidin-4-yl)amino)-5-((1-methyl-1H-imidazol-2-yl)methoxy)pyridin-2-yl)acetamide] | 10 to 100 nM | ≥ 1000 nM |
| CC(=O)Nc1cc(Nc2cc(C)nc(C(C)(F)F)n2)c(OCc2cc(C)on2)cn1 [Example 497, N-(4-((2-(1,1-difluoroethyl)-6-methylpyrimidin-4-yl)amino)-5-((5-methylisoxazol-3-yl)methoxy)pyridin-2-yl)acetamide] | ≤ 10 nM | 10 to 100 nM |
| CC(=O)Nc1cc(Nc2cc(C)nc(C(C)(F)F)n2)c(OCc2noc(C)n2)cn1 [Example 498, N-(4-((2-(1,1-difluoroethyl)-6-methylpyrimidin-4-yl)amino)-5-((5-methyl-1,2,4-oxadiazol-3-yl)methoxy)pyridin-2-yl)acetamide] | ≤ 10 nM | 100 to 1000 nM |
| CC(=O)Nc1cc(Nc2cc(C)nc(C(C)(F)F)n2)c(OCC2CCC(=O)O2)cn1 (centres unmarked) [Example 499, N-(4-((2-(1,1-difluoroethyl)-6-methylpyrimidin-4-yl)amino)-5-((5-oxotetrahydrofuran-2-yl)methoxy)pyridin-2-yl)acetamide] | ≤ 10 nM | 10 to 100 nM |
| CC(=O)Nc1cc(Nc2cc(C)nc(C(C)(F)F)n2)c(OC[C@@H]2CCC(=O)N2)cn1 [Example 500, (S)-N-(4-((2-(1,1-difluoroethyl)-6-methylpyrimidin-4-yl)amino)-5-((5-oxopyrrolidin-2-yl)methoxy)pyridin-2-yl)acetamide] | ≤ 10 nM | 100 to 1000 nM |
| CC(=O)Nc1cc(Nc2cc(C)nc(C(C)(F)F)n2)c(OCCC2CCCN2C)cn1 (centres unmarked) [Example 501, N-(4-((2-(1,1-difluoroethyl)-6-methylpyrimidin-4-yl)amino)-5-(2-(1-methylpyrrolidin-2-yl)ethoxy)pyridin-2-yl)acetamide] | ≤ 10 nM | 100 to 1000 nM |
| CC(=O)Nc1cc(Nc2cc(C)nc(C(C)(F)F)n2)c(OC[C@H]2CCC(=O)N2)cn1 [Example 502, (R)-N-(4-((2-(1,1-difluoroethyl)-6-methylpyrimidin-4-yl)amino)-5-((5-oxopyrrolidin-2-yl)methoxy)pyridin-2-yl)acetamide] | ≤ 10 nM | 100 to 1000 nM |
| CC(=O)Nc1cc(Nc2cc(C)nc(C(C)(F)F)n2)c(OCC2CN(C(C)C)CCO2)cn1 (centres unmarked) [Example 503, N-(4-((2-(1,1-difluoroethyl)-6-methylpyrimidin-4-yl)amino)-5-((4-isopropylmorpholin-2-yl)methoxy)pyridin-2-yl)acetamide] | ≤ 10 nM | 10 to 100 nM |
| CC(=O)Nc1cc(Nc2cc(C)nc(C(C)(F)F)n2)c(OCc2cnoc2)cn1 [Example 504, N-(4-((2-(1,1-difluoroethyl)-6-methylpyrimidin-4-yl)amino)-5-(isoxazol-4-ylmethoxy)pyridin-2-yl)acetamide] | ≤ 10 nM | 10 to 100 nM |
| CC(=O)Nc1cc(Nc2cc(C)nc(C(C)(F)F)n2)c(OCc2cocn2)cn1 [Example 505, N-(4-((2-(1,1-difluoroethyl)-6-methylpyrimidin-4-yl)amino)-5-(oxazol-4-ylmethoxy)pyridin-2-yl)acetamide] | ≤ 10 nM | 10 to 100 nM |
| CC(=O)Nc1cc(Nc2cc(C)nc(C(C)(F)F)n2)c(OCC2CN(C)C2)cn1 [Example 506, N-(4-((2-(1,1-difluoroethyl)-6-methylpyrimidin-4-yl)amino)-5-((1-methylazetidin-3-yl)methoxy)pyridin-2-yl)acetamide] | ≤ 10 nM | 100 to 1000 nM |
| CCOCCOc1cnc(NC(C)=O)cc1Nc1cc(C)nc(C(C)(F)F)n1 [Example 507, N-(4-((2-(1,1-difluoroethyl)-6-methylpyrimidin-4-yl)amino)-5-(2-ethoxyethoxy)pyridin-2-yl)acetamide] | ≤ 10 nM | ≤ 10 nM |
| CC(=O)Nc1cc(Nc2cc(C)nc(C(C)(F)F)n2)c(OCc2cnn(C)c2)cn1 [Example 508, N-(4-((2-(1,1-difluoroethyl)-6-methylpyrimidin-4-yl)amino)-5-((1-methyl-1H-pyrazol-4-yl)methoxy)pyridin-2-yl)acetamide] | ≤ 10 nM | 10 to 100 nM |
| CCn1cc(COc2cnc(NC(C)=O)cc2Nc2cc(C)nc(C(C)(F)F)n2)cn1 [Example 509, N-(4-((2-(1,1-difluoroethyl)-6-methylpyrimidin-4-yl)amino)-5-((1-ethyl-1H-pyrazol-4-yl)methoxy)pyridin-2-yl)acetamide] | ≤ 10 nM | 10 to 100 nM |

| SMILES | IC50 (JH2 domain of human Tyk2) | IC50 (Tyk2) |
| --- | --- | --- |
| CC(=O)Nc1cc(Nc2cc(C)nc(C(C)(F)F)n2)c(OCC2CC(=O)N(C(C)C)C2)cn1 (centres unmarked) [Example 510, N-(4-((2-(1,1-difluoroethyl)-6-methylpyrimidin-4-yl)amino)-5-((1-isopropyl-5-oxopyrrolidin-3-yl)methoxy)pyridin-2-yl)acetamide] | ≤ 10 nM | 100 to 1000 nM |
| CC(=O)Nc1cc(Nc2cc(C)nc(C(C)(F)F)n2)c(OCC2CC(=O)N(C)C2)cn1 (centres unmarked) [Example 511, N-(4-((2-(1,1-difluoroethyl)-6-methylpyrimidin-4-yl)amino)-5-((1-methyl-5-oxopyrrolidin-3-yl)methoxy)pyridin-2-yl)acetamide] | 10 to 100 nM | 100 to 1000 nM |
| COc1nn(C)cc1COc1cnc(NC(C)=O)cc1Nc1cc(C)nc(C(C)(F)F)n1 [Example 512, N-(4-((2-(1,1-difluoroethyl)-6-methylpyrimidin-4-yl)amino)-5-((3-methoxy-1-methyl-1H-pyrazol-4-yl)methoxy)pyridin-2-yl)acetamide] | 100 to 1000 nM | 100 to 1000 nM |
| CO[C@H]1CC[C@@H](Oc2cnc(NC(C)=O)cc2Nc2cc(C)nc(C(C)(F)F)n2)C1 [Example 513, N-(4-((2-(1,1-difluoroethyl)-6-methylpyrimidin-4-yl)amino)-5-(((1R,3S)-3-methoxycyclopentyl)oxy)pyridin-2-yl)acetamide] | ≤ 10 nM | 10 to 100 nM |
| CC(=O)Nc1cc(Nc2cc(C)nc(C(C)(F)F)n2)c(OC[C@]23C[C@](C)(CO2)C3)cn1 [Example 514, N-(4-((2-(1,1-difluoroethyl)-6-methylpyrimidin-4-yl)amino)-5-(((1s,4s)-4-methyl-2-oxabicyclo[2.1.1]hexan-1-yl)methoxy)pyridin-2-yl)acetamide] | ≤ 10 nM | ≤ 10 nM |
| CCOc1cnc(NC(C)=O)cc1Nc1cc(C)nc(C(F)(F)CC)n1 [Example 516, N-(4-((2-(1,1-difluoropropyl)-6-methylpyrimidin-4-yl)amino)-5-ethoxypyridin-2-yl)acetamide] | ≤ 10 nM | 100 to 1000 nM |
| CCOc1cnc(NC(C)=O)cc1Nc1cc(O[C@H]2C[C@H](OC)C2)nc(C)n1 [Example 519, N-(5-ethoxy-4-((6-((1r,3r)-3-methoxycyclobutoxy)-2-methylpyrimidin-4-yl)amino)pyridin-2-yl)acetamide] | 100 to 1000 nM | 100 to 1000 nM |
| CNC(=O)Nc1cc(Nc2cc(C)nc(C(C)(F)F)n2)c(-c2ccc(C#N)cn2)cn1 [Example 520, 1-(5-cyano-4′-((2-(1,1-difluoroethyl)-6-methylpyrimidin-4-yl)amino)-[2,3′-bipyridin]-6′-yl)-3-methylurea] | ≤ 10 nM | ≤ 10 nM |
| COCCOc1ccc(-c2cnc(NC(C)=O)cc2Nc2ccnc(C(C)(F)F)n2)nc1 [Example 523, N-(4′-((2-(1,1-difluoroethyl)pyrimidin-4-yl)amino)-5-(2-methoxyethoxy)-[2,3′-bipyridin]-6′-yl)acetamide] | ≤ 10 nM | ≤ 10 nM |
| CC(=O)Nc1cc(Nc2cc(C)nc(C(C)(F)F)n2)c(-c2ccc(COC(F)F)cn2)cn1 [Example 524, N-(4′-((2-(1,1-difluoroethyl)-6-methylpyrimidin-4-yl)amino)-5-((difluoromethoxy)methyl)-[2,3′-bipyridin]-6′-yl)acetamide] | ≤ 10 nM | ≤ 10 nM |
| CC(=O)Nc1cc(Nc2cccc(C(C)(F)F)n2)c(-c2ccc(C#N)cn2)cn1 [Example 525, N-(5-cyanO4′-((6-(1,1-difluoroethyl)pyridin-2-yl)amino)-[2,3′-bipyridin]-6′-yl)acetamide] | ≤ 10 nM | 10 to 100 nM |
| COc1ccc(-c2cnc(NC(C)=O)cc2Nc2cccc(C(C)(F)F)n2)nn1 [Example 526, N-(4-((6-(1,1-difluoroethyl)pyridin-2-yl)amino)-5-(6-methoxypyridazin-3-yl)pyridin-2-yl)acetamide] | ≤ 10 nM | 10 to 100 nM |
| [2H]C([2H])([2H])C(=O)Nc1cc(Nc2ccnc(C(C)(F)F)n2)c(-c2ccc(OC)nn2)cn1 [Example 527, N-(4-((2-(1,1-difluoroethyl)pyrimidin-4-yl)amino)-5-(6-methoxypyridazin-3-yl)pyridin-2-yl)acetamide-2,2,2-d3] | ≤ 10 nM | ≤ 10 nM |
| CC(=O)Nc1cc(Nc2ccnc(C(C)(F)F)n2)c(-c2cc3n(n2)CCOC3)cn1 [Example 529, N-(4-((2-(1,1-difluoroethyl)pyrimidin-4-yl)amino)-5-(6,7-dihydrO4H-pyrazolo[5,1-c][1,4]oxazin-2-yl)pyridin-2-yl)acetamide] | ≤ 10 nM | ≤ 10 nM |
| CC(=O)Nc1cc(Nc2cc(C)nc(C(C)(C)F)n2)c(-c2cc3n(n2)CCOC3)cn1 [Example 530, N-(5-(6,7-dihydrO4H-pyrazolo[5,1-c][1,4]oxazin-2-yl)-4-((2-(2-fluoropropan-2-yl)-6-methylpyrimidin-4-yl)amino)pyridin-2-yl)acetamide] | ≤ 10 nM | ≤ 10 nM |
